EP2578210A1, “Rottlerin for the treatment of pulmonary hypertension and related diseases and disorders” (ATB Innovation Ltd., priority 2011, dated 2013)

Assays:
Kv7.2 = biological target: T1, Kv7.2 (Homo sapiens, UniProt O43526); assay: Two-electrode current recording of human KCNQ (Kv7) channels heterologously expressed in Xenopus laevis oocytes; type: cell-based; settings: different concentrations
T1 construct: expressed in transfected cells; host or cells: Xenopus laevis oocytes
From the text: (§1) Rottlerin was applied at different concentrations to the expressed Kv7 channels.

Kv7.1/KCNE1 = biological target: T2, Kv7.1/KCNE1 (Homo sapiens, UniProt P51787); assay: as above; type: cell-based
T2 construct: expressed in transfected cells; host or cells: Xenopus laevis oocytes
T2 sequence (P51787 whole entry): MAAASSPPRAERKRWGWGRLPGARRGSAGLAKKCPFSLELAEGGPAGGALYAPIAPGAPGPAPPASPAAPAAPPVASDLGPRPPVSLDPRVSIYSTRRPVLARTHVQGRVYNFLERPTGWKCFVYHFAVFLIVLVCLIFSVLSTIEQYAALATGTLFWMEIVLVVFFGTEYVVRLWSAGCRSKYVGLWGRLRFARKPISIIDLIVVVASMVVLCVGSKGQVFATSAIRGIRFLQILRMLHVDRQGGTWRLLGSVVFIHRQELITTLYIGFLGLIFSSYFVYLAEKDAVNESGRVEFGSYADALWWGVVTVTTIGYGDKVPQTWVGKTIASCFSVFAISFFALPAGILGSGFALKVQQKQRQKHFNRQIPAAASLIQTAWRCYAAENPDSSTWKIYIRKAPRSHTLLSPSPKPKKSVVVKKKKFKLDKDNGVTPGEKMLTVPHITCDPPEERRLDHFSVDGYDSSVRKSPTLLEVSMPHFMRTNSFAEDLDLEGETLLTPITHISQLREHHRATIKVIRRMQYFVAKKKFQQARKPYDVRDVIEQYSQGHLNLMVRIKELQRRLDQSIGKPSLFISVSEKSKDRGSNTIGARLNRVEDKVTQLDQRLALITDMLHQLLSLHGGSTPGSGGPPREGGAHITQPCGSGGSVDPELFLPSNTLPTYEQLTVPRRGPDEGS
From the text: as §1

Kv7.1 = biological target: T3, Kv7.1 (Homo sapiens, UniProt P51787); assay: as above; type: cell-based
T3 construct: expressed in transfected cells; host or cells: Xenopus laevis oocytes
T3 sequence (P51787 whole entry): as above
From the text: as §1

Kv7.3 = biological target: T4, Kv7.3 (Homo sapiens, UniProt O43525); assay: as above; type: cell-based; settings: different concentrations
T4 construct: expressed in transfected cells; host or cells: Xenopus laevis oocytes
T4 sequence (O43525 whole entry): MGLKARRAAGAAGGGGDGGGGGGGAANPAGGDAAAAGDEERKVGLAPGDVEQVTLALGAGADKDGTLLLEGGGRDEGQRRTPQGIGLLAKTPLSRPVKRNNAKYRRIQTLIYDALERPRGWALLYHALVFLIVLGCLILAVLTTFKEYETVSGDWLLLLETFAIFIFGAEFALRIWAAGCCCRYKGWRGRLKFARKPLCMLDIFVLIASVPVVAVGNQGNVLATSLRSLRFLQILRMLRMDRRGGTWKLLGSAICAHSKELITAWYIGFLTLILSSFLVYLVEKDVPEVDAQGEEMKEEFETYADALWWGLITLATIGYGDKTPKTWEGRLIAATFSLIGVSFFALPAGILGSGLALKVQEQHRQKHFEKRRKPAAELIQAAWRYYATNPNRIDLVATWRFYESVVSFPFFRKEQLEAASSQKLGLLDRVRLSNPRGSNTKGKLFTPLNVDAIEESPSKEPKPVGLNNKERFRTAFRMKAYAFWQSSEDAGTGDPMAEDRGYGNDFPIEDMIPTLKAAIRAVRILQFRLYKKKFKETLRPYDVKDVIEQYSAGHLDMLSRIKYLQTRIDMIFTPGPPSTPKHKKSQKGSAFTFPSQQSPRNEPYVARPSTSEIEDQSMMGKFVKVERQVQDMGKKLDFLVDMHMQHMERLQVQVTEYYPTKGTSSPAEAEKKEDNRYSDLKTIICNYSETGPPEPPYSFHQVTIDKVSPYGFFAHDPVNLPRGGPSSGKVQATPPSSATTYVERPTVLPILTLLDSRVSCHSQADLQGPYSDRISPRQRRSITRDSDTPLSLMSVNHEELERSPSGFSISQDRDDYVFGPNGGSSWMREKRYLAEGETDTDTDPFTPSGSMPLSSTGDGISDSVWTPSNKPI
From the text: as §1

Kv7.4 = biological target: T5, Kv7.4 (Homo sapiens, UniProt P56696); assay: as above; type: cell-based
T5 construct: expressed in transfected cells; host or cells: Xenopus laevis oocytes
T5 sequence (P56696 whole entry): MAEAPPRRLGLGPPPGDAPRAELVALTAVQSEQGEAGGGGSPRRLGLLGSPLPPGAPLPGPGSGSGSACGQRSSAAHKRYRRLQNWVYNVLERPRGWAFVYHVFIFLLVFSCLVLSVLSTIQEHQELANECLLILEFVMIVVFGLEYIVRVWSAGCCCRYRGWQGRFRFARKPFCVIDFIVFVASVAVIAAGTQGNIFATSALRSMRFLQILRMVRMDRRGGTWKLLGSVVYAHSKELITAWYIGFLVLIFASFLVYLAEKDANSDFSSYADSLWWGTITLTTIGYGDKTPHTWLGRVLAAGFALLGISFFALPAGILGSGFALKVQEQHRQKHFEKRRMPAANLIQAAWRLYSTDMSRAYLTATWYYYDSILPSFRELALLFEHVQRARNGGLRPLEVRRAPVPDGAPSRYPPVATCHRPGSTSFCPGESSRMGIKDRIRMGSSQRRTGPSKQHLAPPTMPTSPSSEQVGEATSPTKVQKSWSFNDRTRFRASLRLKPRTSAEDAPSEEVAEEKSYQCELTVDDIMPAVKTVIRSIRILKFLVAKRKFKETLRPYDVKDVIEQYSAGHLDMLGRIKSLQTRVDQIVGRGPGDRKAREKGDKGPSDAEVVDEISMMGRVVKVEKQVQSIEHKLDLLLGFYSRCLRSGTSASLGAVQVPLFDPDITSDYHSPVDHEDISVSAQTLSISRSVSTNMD
From the text: as §1

Kv7.5 = biological target: T6, Kv7.5 (Homo sapiens, UniProt Q9NR82); assay: as above; type: cell-based; settings: different concentrations
T6 construct: expressed in transfected cells; host or cells: Xenopus laevis oocytes
From the text: as §1

other PKC isozymes = settings: in vitro studies; cited from earlier work
PKCδ = PKCδ (Homo sapiens, UniProt Q05655); settings: in vitro studies; cited from earlier work
PKCδ, sequence (Q05655 whole entry): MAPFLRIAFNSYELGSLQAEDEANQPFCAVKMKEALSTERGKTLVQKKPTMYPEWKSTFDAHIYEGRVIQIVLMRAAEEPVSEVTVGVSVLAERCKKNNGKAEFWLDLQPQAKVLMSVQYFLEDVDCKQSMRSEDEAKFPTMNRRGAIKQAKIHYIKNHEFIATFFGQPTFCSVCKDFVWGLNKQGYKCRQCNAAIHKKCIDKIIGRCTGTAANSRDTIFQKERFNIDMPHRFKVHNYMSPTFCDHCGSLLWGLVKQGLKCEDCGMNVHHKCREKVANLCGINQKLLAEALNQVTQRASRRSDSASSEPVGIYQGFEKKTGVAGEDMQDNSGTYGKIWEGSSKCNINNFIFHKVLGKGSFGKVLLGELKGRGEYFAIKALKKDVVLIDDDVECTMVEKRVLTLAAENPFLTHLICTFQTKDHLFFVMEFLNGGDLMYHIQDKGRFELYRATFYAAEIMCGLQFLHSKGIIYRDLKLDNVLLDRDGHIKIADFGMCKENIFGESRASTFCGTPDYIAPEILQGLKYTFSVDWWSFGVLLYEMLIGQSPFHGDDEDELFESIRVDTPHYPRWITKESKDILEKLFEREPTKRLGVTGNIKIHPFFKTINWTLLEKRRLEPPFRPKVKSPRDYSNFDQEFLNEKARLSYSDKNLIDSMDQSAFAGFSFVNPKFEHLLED

T1 sequence (O43526 whole entry): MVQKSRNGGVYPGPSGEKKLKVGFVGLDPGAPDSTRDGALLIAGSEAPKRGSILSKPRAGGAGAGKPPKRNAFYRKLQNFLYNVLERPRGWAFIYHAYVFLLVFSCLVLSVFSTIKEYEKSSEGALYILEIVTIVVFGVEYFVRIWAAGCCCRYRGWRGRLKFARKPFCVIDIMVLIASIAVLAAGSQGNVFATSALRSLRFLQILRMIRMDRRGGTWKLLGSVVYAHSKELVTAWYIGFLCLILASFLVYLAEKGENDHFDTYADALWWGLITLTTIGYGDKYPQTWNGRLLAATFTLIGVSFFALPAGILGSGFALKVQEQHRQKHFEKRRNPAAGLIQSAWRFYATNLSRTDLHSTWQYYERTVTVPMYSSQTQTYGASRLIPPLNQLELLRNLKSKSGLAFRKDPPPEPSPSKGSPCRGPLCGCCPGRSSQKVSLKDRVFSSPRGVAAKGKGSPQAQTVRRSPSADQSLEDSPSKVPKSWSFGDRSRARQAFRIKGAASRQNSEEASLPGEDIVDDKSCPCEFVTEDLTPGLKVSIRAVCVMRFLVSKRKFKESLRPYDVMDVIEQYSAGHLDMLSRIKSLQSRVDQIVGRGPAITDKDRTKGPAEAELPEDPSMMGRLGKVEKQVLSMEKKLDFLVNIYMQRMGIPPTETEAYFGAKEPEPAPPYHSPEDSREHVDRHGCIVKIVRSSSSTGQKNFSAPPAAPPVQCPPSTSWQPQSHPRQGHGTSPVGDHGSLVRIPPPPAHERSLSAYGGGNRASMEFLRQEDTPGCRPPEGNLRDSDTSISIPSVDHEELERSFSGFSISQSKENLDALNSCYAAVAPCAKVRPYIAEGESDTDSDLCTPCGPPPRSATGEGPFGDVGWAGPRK

For `CC(=O)c1c(O)c(C)c(O)c(Cc2c(O)c3c(c(C(=O)/C=C/c4ccccc4)c2O)OC(C)(C)C=C3)c1O` [rottlerin, 5,7-dihydroxy-2,2-dimethyl-6-(2,4,6-trihydroxy-3-methyl-5-acetylbenzyl)-8-cinnamoyl-1,2-chromene], the effect on currents (Kv7.2) was “no significant effect”, the EC50 (Kv7.1/KCNE1) was 4.9 µM and the effect on currents (Kv7.1/KCNE1; Kv7.1/KCNE1, different concentrations) was “significant robust activation”. For the same compound, the EC50 (Kv7.1) was 1.48 µM, the effect on currents (Kv7.1; Kv7.1, different concentrations) was “significant robust activation” and the effect on currents (Kv7.3) was “no significant effect”. The EC50 (Kv7.4) was 0.148 µM, the effect on currents (Kv7.4; Kv7.4, different concentrations) was “significant robust activation” and the “potency on Kv7.4 relative to Kv7.1/KCNE1” value (Kv7.4; more potent on Kv7.4 than on cardiac and epithelial Kv7.1/KCNE1) was “about 30 fold”. For the same compound, the effect on currents (Kv7.5) was “no significant effect”, the IC50 (other PKC isozymes) was 30 to 100 µM and the IC50 (PKCδ) was 3 to 6 µM.
